# Assay results from patent publication US20240150356A1, “Pyrimidine amide compounds and use thereof” (ALPHALA CO., LTD., priority 2019, published 2024).
# Test system: Hep3B cells (hepatocellular carcinoma cell line)
# Assay: In vitro MTS cell viability assay (NCI-60 methodology), Hep3B
# Format: cell-based
# Conditions: Homo sapiens, 48 h, Table 7, MTS, 2 days drug incubation, 50% reduction vs time zero, read-out: Hep3B LC50
# Outline: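 Hep3B cells given five 2-fold dilutions of compound for 2 days, with viability by MTS measured at time zero and at end. LC50 is the concentration giving a 50% fall in viable cells relative to the start of treatment, per NCI-60 formula.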
row,Structure (SMILES),LC50
1,"O=C(Nc1nc(-c2ccc(OC(F)(F)F)cc2)nc2c1cnn2-c1ccc(C(F)(F)F)cn1)c1ccc([N+](=O)[O-])s1 [Compound 7-5, 5-nitro-N-(6-(4-(trifluoromethoxy)phenyl)-1-(5-(trifluoromethyl)pyridin-2-yl)-1H-pyrazolo[3,4-d]pyrimidin-4-yl)thiophene-2-carboxamide]",310 nM
2,O=C(Nc1nc(-c2ccc(F)cc2F)nc2c1cnn2-c1ccc(C(F)(F)F)cn1)c1ccc([N+](=O)[O-])s1 [Compound 7-6],150 nM
3,"CCOCCOCCOc1ccc(-c2nc(NC(=O)c3ccc([N+](=O)[O-])s3)c3cnn(-c4ccc(C(F)(F)F)cn4)c3n2)cn1 [Compound 7-7, N-(6-(6-(2-(2-ethoxyethoxy)ethoxy)pyridin-3-yl)-1-(5-(trifluoromethyl)pyridin-2-yl)-1H-pyrazolo[3,4-d]pyrimidin-4-yl)-5-nitrothiophene-2-carboxamide]",500 nM
4,"O=C(Nc1nc(-c2ccc(F)cc2)nc2c1cnn2-c1ccccn1)c1ccc([N+](=O)[O-])s1 [Compound 7-8, N-(6-(4-fluorophenyl)-1-(pyridin-2-yl)-1H-pyrazolo[3,4-d]pyrimidin-4-yl)-5-nitrothiophene-2-carboxamide]",580 nM
5,O=C(Nc1nc(-c2ccc(F)cc2)nc2c1cnn2-c1ccc(Cl)cc1Cl)c1ccc([N+](=O)[O-])s1 [Compound 7-9],370 nM
6,O=C(Nc1nc(-c2ccc(F)nc2)nc2c1cnn2-c1ccc(Cl)cc1Cl)c1ccc([N+](=O)[O-])s1 [Compound 7-10],> 1250 nM
7,"O=C(Nc1nc(N2CCC[C@H]2CO)nc2c1cnn2-c1ccc(Cl)c(Cl)c1)c1ccc([N+](=O)[O-])s1 [Compound 7-11, (S)—N-(1-(3,4-dichlorophenyl)-6-(2-(hydroxymethyl)pyrrolidin-1-yl)-1H-pyrazolo[3,4-d]pyrimidin-4-yl)-5-nitrothiophene-2-carboxamide]",510 nM
8,O=C(Nc1nc(-c2ccc(F)cc2)nc2c1cnn2-c1ccc(F)cc1F)c1ccc([N+](=O)[O-])s1 [Compound 7-12],430 nM
9,O=C(Nc1nc(-c2ccc(F)nc2)nc2c1cnn2-c1ccc(F)cc1F)c1ccc([N+](=O)[O-])s1 [Compound 7-13],130 nM
10,O=C(Nc1nc(-c2ccc(Cl)cc2)nc2c1cnn2-c1ccc(F)cc1F)c1ccc([N+](=O)[O-])s1 [Compound 7-14],580 nM
11,"O=C(Nc1nc(-c2ccc(Cl)nc2)nc2c1cnn2Cc1ccccc1)c1ccc([N+](=O)[O-])s1 [Compound 7-15, N-(1-benzyl-6-(6-chloropyridin-3-yl)-1H-pyrazolo[3,4-d]pyrimidin-4-yl)-5-nitrothiophene-2-carboxamide]",1200 nM
12,"O=C(Nc1nc(-c2ccc(Cl)cc2)nc2c1cnn2Cc1ccccc1)c1ccc([N+](=O)[O-])s1 [Compound 7-16, N-(1-benzyl-6-(4-chlorophenyl)-1H-pyrazolo[3,4-d]pyrimidin-4-yl)-5-nitrothiophene-2-carboxamide]",> 1250 nM
13,"Cc1ccc(-c2nc(NC(=O)c3ccc([N+](=O)[O-])s3)c3cnn(Cc4ccccc4)c3n2)cn1 [Compound 7-17, N-(1-benzyl-6-(6-methylpyridin-3-yl)-1H-pyrazolo[3,4-d]pyrimidin-4-yl)-5-nitrothiophene-2-carboxamide]",> 1250 nM
14,COc1ccc(-c2nc(NC(=O)c3ccc([N+](=O)[O-])s3)c3cnn(Cc4cccc(F)c4)c3n2)cn1 [Compound 7-18],> 1250 nM
15,"C=CC(=O)Nc1ccc(-n2ncc3c(NC(=O)c4ccc([N+](=O)[O-])s4)nc(-c4ccc(F)cc4)nc32)cc1 [Compound 7-19, N-(1-(4-acrylamidophenyl)-6-(4-fluorophenyl)-1H-pyrazolo[3,4-d]pyrimidin-4-yl)-5-nitrothiophene-2-carboxamide]",190 nM
